{"source": "patent US20230108699A1", "about": "“HEART EXTRACELLULAR MATRIX-DERIVED SCAFFOLD FOR CULTURE AND TRANSPLANTATION OF CARDIAC ORGANOID AND METHOD OF PREPARING THE SAME” (CELLARTGEN INC., priority 2020, published 2023)", "system": "human cardiac organoid cultured in the HEM hydrogel", "assay": "Drug reactivity of HEM scaffold-based human cardiac organoid by calcium imaging", "assay_type": "cell-based", "conditions": "7th day of culture, HEM hydrogel 4 mg/ml", "protocol": "In order to check the reactivity of the human cardiac organoid cultured in the HEM hydrogel (4 mg/ml) to drugs, treatment with two representative drugs (isoproterenol and propranolol) affecting the heart rate was performed on the 7th day of culture, and reaction of the organoid thereto was checked through calcium imaging."}
{"smiles": "CC(C)NCC(O)COc1cccc2ccccc12", "note": "(centres unmarked) [propranolol]", "values": [{"measurement": "beating of cardiac organoid", "setting": "propranolol 10 μM", "value": "decreased"}]}
{"smiles": "CC(C)NCC(O)c1ccc(O)c(O)c1", "note": "(centres unmarked) [isoproterenol]", "values": [{"measurement": "beating of cardiac organoid", "setting": "isoproterenol 1 μM", "value": "increased"}]}
